Among the test systems are TK-10; NCI-H23; K562; SK-MEL-28; RXF 393; LOX IMVI; HOP-92; MCF7; SK-MEL-5; SK-MEL-2; HL-60; BT-549; SF-539; IGROV-1; KM12; Hs-578T; MDA-MB-435; HOP-62; RPMI-8226; SNB-75.
Common to all, as to test: NCI tumour cell line growth inhibition, 48 h

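48-hour exposure; five concentrations; linearly interpolated endpoints. GI50 = concentration required for 50% inhibition of growth.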 The source made the active and inactive calls. Cut-off read from the data, not from the text of the source: active = GI50 up to about 1.1 µM and inactive = higher.

On to `CC(=O)OCc1cc(=O)n2c([nH]c3ccccc32)c1C#N`, for which the GI50 in the experiment with TK-10 was 82.4 µM (inactive); in the experiment on NCI-H23, > 100 µM (inactive); in the experiment with K562 it was 65.9 µM (inactive); in the experiment with SK-MEL-28, 82.6 µM (inactive); with RXF 393, 59.3 µM (inactive); in the experiment with LOX IMVI, 68.7 µM (inactive). For the same compound, the GI50 with HOP-92 is 84.3 µM (inactive); with MCF7 it was > 100 µM (inactive); in the experiment on SK-MEL-5, 49.9 µM (inactive); with SK-MEL-2 it was 76.6 µM (inactive); with HL-60 it was 42.3 µM (inactive); with BT-549, > 100 µM (inactive). Also, the GI50 was > 100 µM (inactive) in the experiment on SF-539 and 55 µM (inactive) in the experiment on IGROV-1.

Turning to `CC1=NN(c2cccc(Cl)c2)C2(C1=Cc1ccccc1)C(Cl)C(=O)N2c1nc2ccccc2s1` (stereo not drawn), the GI50 is 37.8 µM (inactive) with TK-10; 14.5 µM (inactive) in the experiment on NCI-H23; 19.1 µM (inactive) with K562; 27.2 µM (inactive) with SK-MEL-28; 17.3 µM (inactive) with KM12; 14 µM (inactive) in the experiment with RXF 393. For the same compound, the GI50 is 23.7 µM (inactive) with LOX IMVI; 9.14 µM (inactive) in the experiment with HOP-92; 22.2 µM (inactive) with MCF7; 23.2 µM (inactive) in the experiment on Hs-578T; 13.3 µM (inactive) in the experiment on SK-MEL-5; 19.3 µM (inactive) with MDA-MB-435. Further, the GI50 was 17 µM (inactive) in the experiment on SK-MEL-2; 22.1 µM (inactive) with HL-60; 20.3 µM (inactive) in the experiment with HOP-62; 33.2 µM (inactive) in the experiment with SF-539; 15.1 µM (inactive) in the experiment on IGROV-1; 21.9 µM (inactive) in the experiment on RPMI-8226.

Regarding `O/N=C/[C@H]1COC2(CCCCC2)O1`, the GI50 with TK-10, with NCI-H23, in the experiment with SNB-75, in the experiment on K562, with SK-MEL-28 and with KM12 was > 100 µM (inactive) throughout. Also, the GI50 in the experiment on LOX IMVI is > 100 µM (inactive); in the experiment with HOP-92, 31.6 µM (inactive); in the experiment with MCF7 it was > 100 µM (inactive); in the experiment on Hs-578T, > 100 µM (inactive); in the experiment with SK-MEL-5, > 100 µM (inactive); in the experiment with MDA-MB-435, > 100 µM (inactive). For the same compound, the GI50 in the experiment on SK-MEL-2, with HOP-62, in the experiment on IGROV-1 and with RPMI-8226 was > 100 µM (inactive) each time.

Regarding `OC(c1ccsc1)c1cc2ccccc2s1` (stereo not drawn), the GI50 in the experiment on TK-10, in the experiment with NCI-H23, in the experiment with SNB-75, in the experiment with K562, with SK-MEL-28 and with KM12 was > 10 µM (inactive) each time. Besides, the GI50 with RXF 393, in the experiment with LOX IMVI, in the experiment on HOP-92, with MCF7, in the experiment with Hs-578T and with SK-MEL-5 was > 10 µM (inactive) in each case. Besides, the GI50 in the experiment with MDA-MB-435, in the experiment on SK-MEL-2, with HL-60, in the experiment with HOP-62, in the experiment on SF-539 and in the experiment on IGROV-1 was > 10 µM (inactive) each time. In addition, in the experiment with RPMI-8226, the GI50 was > 10 µM (inactive).

For `CCOC(=O)CCC(NC(=O)c1ccc(Oc2nc3ccc(C(F)(F)F)cc3nc2-c2ccccc2)cc1)C(=O)OCC` (stereo not drawn), the GI50 in the experiment with TK-10 was 15.1 µM (inactive); with NCI-H23 it was 16.8 µM (inactive); in the experiment on SNB-75 it was 9.46 µM (inactive); in the experiment with K562, > 100 µM (inactive); with SK-MEL-28 it was > 100 µM (inactive); with KM12, 11.2 µM (inactive). In addition, the GI50 with RXF 393 was 15.7 µM (inactive); with LOX IMVI, 28.6 µM (inactive); in the experiment on HOP-92, 18.9 µM (inactive); in the experiment with MCF7 it was > 41.5 µM (inactive); with Hs-578T it was 3.33 µM (inactive); in the experiment on SK-MEL-5, 45.3 µM (inactive). The GI50 in the experiment with MDA-MB-435 was > 100 µM (inactive); in the experiment on SK-MEL-2, 22.8 µM (inactive); in the experiment with HL-60, > 100 µM (inactive); with HOP-62 it was 4.82 µM (inactive); in the experiment with SF-539, 3.01 µM (inactive); in the experiment on IGROV-1, 22.7 µM (inactive). In the experiment with RPMI-8226, the GI50 was > 100 µM (inactive).

Take `CSc1nc2c(=O)n(-c3ccccc3)c(=S)n(-c3ccccc3)c2s1`: the GI50 was 42.1 µM (inactive) in the experiment with TK-10; > 100 µM (inactive) with NCI-H23; 41.6 µM (inactive) in the experiment with SNB-75; > 100 µM (inactive) in the experiment with K562; > 100 µM (inactive) in the experiment with SK-MEL-28; 49 µM (inactive) with KM12. The GI50 in the experiment with RXF 393 is 34.4 µM (inactive); with LOX IMVI, 82 µM (inactive); in the experiment with HOP-92, 25.4 µM (inactive); in the experiment with MCF7, > 100 µM (inactive); in the experiment with Hs-578T it was 29.2 µM (inactive); in the experiment with SK-MEL-5, > 100 µM (inactive). Also, the GI50 is > 100 µM (inactive) in the experiment on MDA-MB-435; > 100 µM (inactive) with SK-MEL-2; > 100 µM (inactive) in the experiment on HL-60; 42 µM (inactive) in the experiment on HOP-62; 39.9 µM (inactive) in the experiment with SF-539; > 100 µM (inactive) in the experiment on IGROV-1. Besides, in the experiment with RPMI-8226, the GI50 was > 100 µM (inactive).

With `CC1CC/C(=C\c2ccc(N(C)C)cc2)C(=O)/C1=C/c1ccc(N(C)C)cc1` (stereo not drawn), the GI50 in the experiment with TK-10, in the experiment with NCI-H23, in the experiment with SNB-75, in the experiment with K562, with SK-MEL-28 and in the experiment on KM12 was > 100 µM (inactive) each time. Moreover, the GI50 with LOX IMVI, with MCF7, in the experiment on SK-MEL-5, in the experiment on MDA-MB-435, with SK-MEL-2 and in the experiment with HOP-62 was > 100 µM (inactive) throughout. In addition, the GI50 in the experiment on BT-549, in the experiment on SF-539 and with IGROV-1 was > 100 µM (inactive) throughout.

As for `Cc1[nH]n(-c2nc3c(c(=O)[nH]2)CCC3)c(=O)c1CCO`, the GI50 with TK-10 is > 100 µM (inactive); in the experiment with NCI-H23, > 100 µM (inactive); with SNB-75, 0.0195 µM (active); in the experiment on K562 it was > 100 µM (inactive); in the experiment with SK-MEL-28 it was > 100 µM (inactive); in the experiment with KM12, > 100 µM (inactive). For the same compound, the GI50 in the experiment with RXF 393, with LOX IMVI, with MCF7, in the experiment on Hs-578T, in the experiment on SK-MEL-5 and in the experiment with MDA-MB-435 was > 100 µM (inactive) throughout. The GI50 in the experiment with SK-MEL-2, with HL-60, in the experiment on HOP-62, with SF-539, in the experiment on IGROV-1 and with RPMI-8226 was > 100 µM (inactive) each time.

These data come from ChEMBL document CHEMBL1201862, “PubChem BioAssay data set” (2004).
